Laboratory results published in patent publication US20230218563A1, “METHODS FOR TREATING OR PREVENTING CHRONIC KIDNEY DISEASE” (Arthrosi Therapeutics, Inc., priority 2020, published 2023).

Columns and labels:
[1] = target: T1, human URAT1 uptake transporter (Homo sapiens, UniProt Q96S37); assay: Inhibition of URAT1 mediated uric acid uptake in MDCKII cells stably expressing human URAT1; assay type: cell-based; settings: MDCKII cells expressing human URAT1; 20 μM uric acid probe; read-out: IC50, inhibition of URAT1 mediated uric acid accumulation
T1 construct: expressed in transfected cells
T1 sequence (Q96S37 1-553): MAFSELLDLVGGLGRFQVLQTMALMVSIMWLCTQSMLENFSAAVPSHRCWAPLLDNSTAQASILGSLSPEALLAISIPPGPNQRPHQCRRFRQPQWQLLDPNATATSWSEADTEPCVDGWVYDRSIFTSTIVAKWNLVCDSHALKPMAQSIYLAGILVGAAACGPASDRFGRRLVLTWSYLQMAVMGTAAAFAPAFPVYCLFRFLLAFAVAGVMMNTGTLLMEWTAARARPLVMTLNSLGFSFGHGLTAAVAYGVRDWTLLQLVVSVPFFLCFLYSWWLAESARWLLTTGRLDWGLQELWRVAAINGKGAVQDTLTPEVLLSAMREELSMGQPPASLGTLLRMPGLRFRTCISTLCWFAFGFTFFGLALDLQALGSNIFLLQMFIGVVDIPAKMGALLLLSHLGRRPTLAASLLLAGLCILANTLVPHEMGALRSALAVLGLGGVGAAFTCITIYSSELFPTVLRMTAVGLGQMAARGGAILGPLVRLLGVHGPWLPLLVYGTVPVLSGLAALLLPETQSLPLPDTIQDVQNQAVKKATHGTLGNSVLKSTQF
Protocol: Uptake experiments were performed using MDCKII cells stably expressing the human URAT1 uptake transporter. Cells were cultured at 37±1° C. in an atmosphere of 95:5 air:CO2 and were plated onto standard 96-well tissue culture plates at the cell number described in Table 1.
Radiolabeled probe substrate transport was determined by measuring an aliquot (35 μL) from each well for liquid scintillation counting.

[2] = Solubility of test articles in HBSS assay buffer; settings: all tested concentrations, highest 10 μM
Protocol: Before the experiment, the medium was removed and the cells were washed twice with 100 μL of HBSS without Cl^−. Uptake experiments were carried out at 37±1° C. in 50 μL of HBSS without Cl^−, pH 7.4 containing the probe substrate (20 μM uric acid) and the test article (TA) or solvent.

serum uric acid (sUA) = assay: Phase 2a cross-over study in adults with gout, serum uric acid; assay type: in vivo, human; settings: for patients with sUA levels below 5 mg/dL / patients with sUA levels below 6 mg/dL: gout patients (sUA>7 mg/dL), alone or combined; for mean sUA level reached at maximum: mean baseline 8.9 mg/dL
[3] = test system: urine albumin-to-creatinine ratio (UACR); assay: Phase 2a study, UACR in a subject with albuminuria; assay type: in vivo, human; settings: one subject with albuminuria, baseline 96 mg/g; sequential 7-day periods: Compound 1 50 mg (Day 7), Compound 1 50 mg/allopurinol 300 mg (Day 14), allopurinol 300 mg (Day 21)
Source text: Urine samples were collected for assessment of uric acid excretion. Laboratory safety tests, vital signs, and electrocardiograms were collected throughout the study.

[4] = In vitro metabolism in human liver microsomes; assay type: in vitro ADME; settings: human liver microsomes 0.5 mg/mL, NADPH, 60 minutes, 37° C.
Protocol: After pre-warming the mixture at 37° C. for 5 minutes, the reaction was initiated by the addition of 1 mM of NADPH and incubated for 60 minutes at 37° C. in a shaking water bath. The reaction was terminated by the addition of 0.5 mL ice-cold acetonitrile. Time 0 incubation was also performed by adding acetonitrile before the addition of microsomes to the incubation mixture as a reference sample for each species. Following vortex and centrifugation at 15,000 g for 3 minutes at room temperature, resulting supernatant was concentrated under nitrogen flow at 33° C., until approximately 0.5 mL of sample remained. The extract was then transferred to a 1.5-mL centrifuge vial for centrifugation at 15,000 g for 3 minutes. Finally, aliquots of the supernatant were transferred to HPLC vials for HPLC-MS analyses.
MS Analysis: Mass spectral analyses were performed on an Agilent single quadruple mass spectrometer equipped with an Agilent 1100 HPLC system. The mass spectrometer was fitted with an electrospray ionization (ESI) source and operated in a negative scan mode between 400 and 500 amu: […]

[5] = once daily, Compound 1 50 mg, febuxostat 40 mg, allopurinol 300 mg
[6] = gout patients, once daily, Compound 1 50 mg, febuxostat 40 mg, allopurinol 300 mg, alone (Day 7/Day 21) or combined

Row | IC50 [1] | solubility in HBSS buffer [2] | Parent, % MS response (parent left) [4] | Compound | patients with sUA levels below 5 mg/dL (serum uric acid (sUA); [5]) | patients with sUA levels below 6 mg/dL (serum uric acid (sUA); [5]) | mean sUA level reached at maximum (serum uric acid (sUA); [6]) | sUA % change from baseline (serum uric acid (sUA); one subject with albuminuria, sequential 7-day periods: Compound 1 50 mg (Day 7), Compound 1 50 mg/allopurinol 300 mg (Day 14), allopurinol 300 mg (Day 21)) | UACR [3] | UACR % change from baseline [3] | reduction of mean sUA from baseline (serum uric acid (sUA); [6])
1 | 0.913 µM | soluble | – | [2H]c1c(O)c([2H])c2oc(C(C)O)c(C(=O)c3cc(Br)c(O)c(Br)c3)c2c1[2H] (centres unmarked) [Compound 2, (3,5-dibromo-4-hydroxyphenyl)(6-hydroxy-2-(1-hydroxyethyl)benzofuran-3-yl-4,5,7-d3)methanone] | – | – | – | – | – | – | –
2 | – | – | – | Oc1ncnc2[nH]ncc12 [allopurinol] | 11% | 56% | 5.8 mg/dL | −40% | 55 mg/g | −42.6% | –
3 | – | soluble | 13.1% | CCc1oc2ccccc2c1C(=O)c1cc(Br)c(O)c(Br)c1 [benzbromarone, reference compound] | – | – | – | – | – | – | –
4 | – | – | – | Cc1nc(-c2ccc(OCC(C)C)c(C#N)c2)sc1C(=O)O [febuxostat] | 33% | 67% | 5.5 mg/dL | – | – | – | 38.9%
